Molecular target: MDM2 (Homo sapiens, UniProt Q00987)
Assay: MDM2 binding screen of Libraries 3 and 4: displacement of fluorescent probe F-M8 at 750 nM macrocycle
In short: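 Cyclic peptide scaffolds were acylated in DMSO with carboxylic acids (20 equiv.), HBTU and DABCO for 6 h at room temperature. Reactions were quenched overnight in 100 mM Tris-Cl pH 7.4, 0.01% Tween20. The fluorescein conjugate was also competed with nutlin-3a.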

[1] = Panel b, Library 3: 63 scaffolds combinatorially acylated with 15 carboxylic acids at 30 picomole scale, displacement of fluorescent peptide probe, macrocycle 750 nM
[2] = Panel c, Library 4: best nine scaffolds and 15 additional carboxylic acids, displacement of fluorescent probe

Chain of MDM2 (Q00987 whole entry): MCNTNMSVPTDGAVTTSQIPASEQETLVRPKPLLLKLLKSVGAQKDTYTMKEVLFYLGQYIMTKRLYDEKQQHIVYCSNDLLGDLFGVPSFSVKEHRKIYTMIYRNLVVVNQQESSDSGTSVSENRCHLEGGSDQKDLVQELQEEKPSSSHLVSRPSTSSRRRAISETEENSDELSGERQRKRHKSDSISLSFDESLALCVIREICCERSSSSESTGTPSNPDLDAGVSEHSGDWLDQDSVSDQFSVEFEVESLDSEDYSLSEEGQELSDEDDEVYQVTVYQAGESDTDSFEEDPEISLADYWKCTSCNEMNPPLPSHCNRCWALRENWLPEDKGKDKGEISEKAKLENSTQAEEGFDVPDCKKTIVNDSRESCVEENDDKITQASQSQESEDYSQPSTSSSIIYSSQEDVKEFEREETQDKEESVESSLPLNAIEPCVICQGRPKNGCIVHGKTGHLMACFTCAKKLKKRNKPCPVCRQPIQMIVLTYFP

fraction of fluorescent probe displaced [1] | other results | Compound
– | displacement of fluorescent probe from MDM2 (750 nM macrocycle, crude reaction, probe F-M8): 68% | COc1ccc(/C=C/C(=O)NC[C@@H]2NC(=O)[C@H]3CCCN(C3)C(=O)CCSSCCNC(=O)[C@H](Cc3c[nH]c4ccccc34)NC2=O)cc1 [M9]
0.055 | – | O=C(/C=C/c1ccc2ccccc2c1)NCCN1CC(=O)N[C@H](Cc2c[nH]c3ccccc23)C(=O)NCCSSCCC(=O)N2CCC[C@@H](C2)C1=O [X-Nip-N-Aeg-D-Trp + Acid 112]
0.008 | – | O=C(NCC1NC(=O)C2CN(CCO2)C(=O)CCSSCCNC(=O)C(Cc2ccc3ccccc3c2)NC1=O)c1cccc(Oc2ccccc2)c1 (stereo not drawn) [X-Cop-Dap-2-Nal + Acid 111]
0.00133 | – | O=C1CCSSCCNC(=O)C(Cc2c[nH]c3ccccc23)NC(=O)C(CNC(=O)C2COc3ccccc3O2)NC(=O)C2(CC2)CN1 (mixture of isomers) [X-Amcp-Dap-Trp + Acid 115]
0.031 | – | CN1C(=O)[C@H](CNC(=O)c2ccc3ccccc3c2)NC(=O)[C@H]2CCCN(C2)C(=O)CCSSCCNC(=O)[C@@H]1Cc1c[nH]c2ccccc12 [X-Nip-Dap-NMe-Trp + Acid 107]
0.194 | – | O=C(NC[C@@H]1NC(=O)[C@H]2CCCN(C2)C(=O)CCSSCCNC(=O)[C@H](Cc2c[nH]c3ccccc23)NC1=O)c1ccc(Cl)cc1 [X-Nip-Dap-Trp + Acid 25]
– | fraction of fluorescent probe displaced [2]: 0.289 | O=C(/C=C/c1ccc(F)cc1)NC[C@@H]1NC(=O)[C@H]2CCCN(C2)C(=O)CCSSCCNC(=O)[C@H](Cc2c[nH]c3cc(Cl)ccc23)NC1=O [X-Nip-Dap-Cl-Trp + Acid 116]
– | fraction of fluorescent probe displaced [2]: 0.069 | CCCOc1ccc(/C=C/C(=O)NC[C@@H]2NC(=O)C3(CC3)CNC(=O)CCSSCCNC(=O)[C@H](Cc3c[nH]c4ccccc34)NC2=O)cc1 [X-Amcp-Dap-Trp + Acid 118]
-0.012 | – | O=C1CCSSCCNC(=O)[C@H](Cc2cccc3ccccc23)NC(=O)CN(CCNC(=O)c2ccc(Cl)cc2)C(=O)C2(CC2)CN1 [X-Amcp-N-Aeg-1-NaI + Acid 25]
-0.00533 | – | CC(Oc1cccc(Cl)c1)C(=O)NCC1NC(=O)C2CCCN(C2)C(=O)CCSSCCNC(=O)C(Cc2c[nH]c3ccccc23)NC1=O (mixture of isomers) [X-Nip-Dap-Trp + Acid 113]
0.015 | – | CC(Oc1cccc(Cl)c1)C(=O)NCCN1CC(=O)NC(Cc2cn(C)c3ccccc23)C(=O)NCCSSCCC(=O)NCC2(CC2)C1=O (mixture of isomers) [X-Amcp-N-Aeg-Me-Trp + Acid 113]
0.008 | – | O=C(/C=C/c1ccc(OCc2ccccc2)cc1)NC[C@@H]1NC(=O)[C@H]2CCCN(C2)C(=O)CCSSCCNC(=O)[C@H](Cc2cccc3ccccc23)NC1=O [X-Nip-Dap-1-NaI + Acid 110]
0.00133 | – | Cn1cc(C[C@@H]2NC(=O)[C@H](CNC(=O)c3ccc(Cl)s3)NC(=O)[C@@H]3CN(CCO3)C(=O)CCSSCCNC2=O)c2ccccc21 [X-Cop-Dap-Me-Trp + Acid 14]
-0.015 | – | CN1C(=O)[C@@H](CNC(=O)/C=C/c2ccncc2)NC(=O)C2(CC2)CNC(=O)CCSSCCNC(=O)[C@@H]1Cc1c[nH]c2ccccc12 [X-Amcp-D-Dap-NMe-Trp + Acid 106]
0.015 | – | O=C(CCS(=O)(=O)c1ccccc1)NCCN1CC(=O)N[C@@H](Cc2ccc3ccccc3c2)C(=O)NCCSSCCC(=O)N2CCC[C@@H](C2)C1=O [X-Nip-N-Aeg-2-Nal + Acid 114]
-0.019 | – | CC(Oc1cccc(Cl)c1)C(=O)NC[C@H]1NC(=O)[C@H]2CCCN(C2)C(=O)CCSSCCNC(=O)[C@H](Cc2c[nH]c3ccccc23)NC1=O (stereo partly drawn) [X-Nip-D-Dap-Trp + Acid 113]
-0.00533 | – | O=C(NC[C@H]1NC(=O)[C@H]2CCCN(C2)C(=O)CCSSCCNC(=O)[C@@H](Cc2c[nH]c3ccccc23)NC1=O)c1ccc(Cl)s1 [X-Nip-D-Dap-D-Trp + Acid 14]
0.015 | – | O=C(/C=C/c1ccc2ccccc2c1)NCCN1CC(=O)N[C@@H](Cc2cccc3ccccc23)C(=O)NCCSSCCC(=O)N2CCC[C@@H](C2)C1=O [X-Nip-N-Aeg-1-NaI + Acid 112]
0.041 | – | Cn1cc(C[C@@H]2NC(=O)[C@H](CNC(=O)CCS(=O)(=O)c3ccccc3)NC(=O)C3(CC3)CNC(=O)CCSSCCNC2=O)c2ccccc21 [X-Amcp-Dap-Me-Trp + Acid 114]
0.028 | – | CN1C(=O)[C@H](CNC(=O)c2ccc(Cl)s2)NC(=O)[C@@H]2CN(CCO2)C(=O)CCSSCCNC(=O)[C@@H]1Cc1c[nH]c2ccccc12 [X-Cop-Dap-NMe-Trp + Acid 14]
0.00133 | – | Cn1cc(C[C@@H]2NC(=O)[C@@H](CNC(=O)/C=C/c3ccc4ccccc4c3)NC(=O)C3(CC3)CNC(=O)CCSSCCNC2=O)c2ccccc21 [X-Amcp-D-Dap-Me-Trp + Acid 112]
-0.012 | – | O=C(NCC1NC(=O)C2CN(CCO2)C(=O)CCSSCCNC(=O)C(Cc2cccc3ccccc23)NC1=O)c1ccc(Cl)cc1 (stereo not drawn) [X-Cop-Dap-1-NaI + Acid 25]
0.021 | – | O=C(/C=C/c1ccc2ccccc2c1)NC[C@H]1NC(=O)[C@@H]2CN(CCO2)C(=O)CCSSCCNC(=O)[C@@H](Cc2c[nH]c3ccccc23)NC1=O [X-Cop-D-Dap-D-Trp + Acid 112]
0.015 | – | Cn1cc(C[C@@H]2NC(=O)[C@@H](CNC(=O)CCS(=O)(=O)c3ccccc3)NC(=O)C3(CC3)CNC(=O)CCSSCCNC2=O)c2ccccc21 [X-Amcp-D-Dap-Me-Trp + Acid 114]
0.035 | – | O=C(/C=C/c1ccc(Cl)cc1)NCCN1CC(=O)N[C@@H](Cc2cccc3ccccc23)C(=O)NCCSSCCC(=O)NCC2(CC2)C1=O [X-Amcp-N-Aeg-1-NaI + Acid 108]
0.00133 | – | Cn1cc(C[C@@H]2NC(=O)CN(CCNC(=O)CCS(=O)(=O)c3ccccc3)C(=O)[C@H]3CCCN(C3)C(=O)CCSSCCNC2=O)c2ccccc21 [X-Nip-N-Aeg-Me-Trp + Acid 114]
0.008 | – | CC(Oc1cccc(Cl)c1)C(=O)NC[C@@H]1NC(=O)[C@H]2CCCN(C2)C(=O)CCSSCCNC(=O)[C@H](Cc2c[nH]c3cc(Cl)ccc23)NC1=O (stereo partly drawn) [X-Nip-Dap-Cl-Trp + Acid 113]
-0.00533 | – | O=C(/C=C/c1ccc(OCc2ccccc2)cc1)NCCN1CC(=O)N[C@@H](Cc2cccc3ccccc23)C(=O)NCCSSCCC(=O)N2CCC[C@@H](C2)C1=O [X-Nip-N-Aeg-1-NaI + Acid 110]
-0.00533 | – | O=C(NC[C@H]1NC(=O)[C@H]2CCCN(C2)C(=O)CCSSCCNC(=O)[C@H](Cc2c[nH]c3ccccc23)NC1=O)c1ccc(Cl)cc1 [X-Nip-D-Dap-Trp + Acid 25]
0.048 | – | O=C(C=Cc1ccc(Cl)cc1)NCCN1CC(=O)NC(Cc2cccc3ccccc23)C(=O)NCCSSCCC(=O)N2CCOC(C2)C1=O (stereo not drawn) [X-Cop-N-Aeg-1-NaI + Acid 108]

Reference: paper PMC9250534, “Synthesis and direct assay of large macrocycle diversities by combinatorial late-stage modification at picomole scale” (Nature Communications, 2022)
